Legend:
LL-37 = assay: ELISA of LL-37 in lysate of VD3-stimulated 5637 cells; type: cell-based, human; details: 5637 cells stimulated with VD3 at different concentrations, FIG. 4
Protocol: 3.2 ELISA Experiments about Effect of 1,25 (OH)2D3 on LL-37 Production 3.2.1 the Procedure of Inoculation (Day1), Administration (Day2), and E. coli infection bacteria solution preparation (Day 2&3) was the same as 3.1.1, 3.1.2 and 3.1.3.
Cell lysate was obtained using the method of 3.1.4. Cell debris and bacteria were removed by 13000 rpm centrifugation for 5 min. Lysate supernatant was fetched out and LL-37 was quantified by Human LL-37 ELISA Kit (Hycult, Cat. No. HK321).

E. coli CFT073 [1] = assay: Antibacterial experiment: VD3-stimulated 5637 bladder cells co-incubated with E. coli CFT073, CFU of cell lysate; type: cell-based; details: 5637 cells stimulated by VD3 at different concentrations, FIG. 3
Protocol: In this study, the final activated form of vitamin D, 1,25-dihydroxyvitamin D3 [1,25(OH)2D3] was the test substance, the human bladder cancer cells 5637 was used as experimental systems, the E. coli CFT073 was antibacterial target, cells treated by 1,25(OH)2D3 was co-incubated with E. coli CFT073. The E. coli CFT073 colony forming units (CFU) was used to examine whether 1,25(OH)2D3 achieved an antibacterial effect by stimulating cell lines derived from human to secrete antimicrobial peptides in vitro.
(§1) 5637 cells in the condition of exponential growth and about 90% confluence were digested by pancreatin (GIBCO, Cat. No. 25200-056) for 5 min. When most of the cells came off from the culture plate, complete medium was added to terminate digestion. The non-peeling cells were blown down from the culture plate by a pipette, and were transferred to a 15 ml centrifuge tube. The cells were centrifuged at 1500 rpm for three minutes. The supernatant was discarded. The cell deposit was resuspended in complete medium to ensure that the cells uniformly dispersed.
(§2) The cell suspension was counted by hemacytometer;
The concentration of cell suspension was adjusted to 4×10^5/mL using incomplete RPMI 1640 medium;
Each well of 6-well plate was inoculated with 2 mL cell suspension, the total number of cells per well was 8×10^5;
6-well plate was placed in an incubator under the condition of 37° C., 5% CO2. […]

E. coli O111B4 = assay: Antibacterial experiment: supernatant of VD3-stimulated U-937 cells co-incubated with E. coli O111B4, colony count; type: cell-based; details: for CFU: U937 supernatant
Protocol: In this study, the final activated form of vitamin D, 1,25-dihydroxyvitamin D3 [1,25 (OH)2D3] was the test substance. The lymphoma U-937 cells of human tissue cell were used as experimental systems, the E. coli O111B4 was the antibacterial target. Cell supernatants treated by 1,25(OH)2D3 was co-incubated with E. coli O111B4. The E. coli O111B4 colony forming units (CFU) was used to examine whether 1,25(OH)2D3 achieved an antibacterial effect by stimulating cell lines derived from human to secrete antimicrobial peptides in vitro.
U-937 cells in the condition of exponential growth were centrifuged (1000 rpm, 5 min);
After centrifugation, the supernatant was discarded, and cell sediment was resuspended in an appropriate amount of RPMI1640 incomplete medium to make sure cells dispersed uniformly;
The cell suspension was counted by hemacytometer counting;
The concentration of cell suspension was adjusted to 1×10^5/mL using RPMI 1640 incomplete medium;
Each well of 6-well plate was inoculated with 3 mL cell suspension, the total number of cells per well was 3×10^5;
According to the label and the experimental design, 10 μL 200× test solution or vehicle of various concentrations with 0.5% (v/v) dose volume was added to each well.
Each dose was repeated in two parallel wells, one well harvested after 24 hours, and the other well harvested after 48 hours;
After administration, the 6-well plate was placed in 37° C., 5% CO2 incubator, cultured for 24 hours and 48 hours respectively.
Day 1 afternoon, a E. coli O111B4 glycerol pipe was thawed, 10 μL glycerol bacteria was inoculated in 10 mL of LB liquid medium without any antibiotic, and was cultured on oscillator at 37° C. overnight; Day 2 morning, 200 μL cultured broth (1:100 ratio) cultured overnight was transferred to 20 mL LB liquid medium without any antibiotics and was cultured on oscillator at 37° C. until OD600 was 0.6-1.0, then the next step was antibacterial experiment (Day 3); the remaining overnight cultured broth was stored in the refrigerator at 2-8° C. until needed.
Day 2 afternoon, 10 μL overnight cultured broth was inoculated in 10 mL LB medium without any antibiotics, and was cultured on oscillator at 37° C. overnight;
Day 3 morning, 200 μL overnight cultured broth (1:100 ratio) was transferred to 20 mL LB medium without any antibiotics, and was cultured on oscillator at 37° C. until OD600 was 0.6-1.0, then the next step was antibacterial experiment (Day 3).
Before the experiment started, 1.5% agar plate (lower medium) prepared beforehand was placed at room temperature for at least one hour;
Top agar medium (containing 0.8%/agar) was melted, and packaged. Each 1.6 mL of Top agar medium was packaged in each tube, and then the small tube was placed in 45° C. water bath to keep warm;
10 mL E. coli bacteria of OD600 0.6-1.0 was transferred into 50 mL centrifuge tubes to centrifuge (1000 rpm×5 min); After centrifugation, the supernatant was discarded, the bacteria precipitate was resuspended by adding 10 mL PBS; the above-described bacterial suspension was diluted 1×10^5 fold in PBS dilution by multiple proportion dilution (from 10-fold); After the drug action finished (24 hours or 48 hours), U-937 cells was centrifugated (1000 rpm, 5 min). After centrifugation, the supernatant was drawn back;
Each centrifuge tube previously added 50 μL diluted bacterial suspension (approximately 150-250 bacteria);
Bacterial suspension were added with 1.2 mL cell supernatant from each cell supernatant, and mixed;
The supernatant/bacterial mixture was placed on shaking table (200 rpm) at 37° C. and was incubated for 90 minutes. After incubation, the next step was plating;
Plating: 0.8 mL of cell supernatant/broth mixture was mixed with 1.6 mL top agar medium, the mixture was plated on 1.5% agar plates, 600 uL per well in triplicate.
Sterility test: 800 uL PBS and 1.6 mL top agar medium was mixed, and plated as above. […]

E. coli CFT073 [2] = assay: Antibacterial experiment: VD3-stimulated SV-HUC1 urethral epithelial cells co-incubated with E. coli CFT073, CFU of cell lysate; type: cell-based; details: SV-HUC1 cells stimulated by VD3 at different concentrations, FIG. 5
Protocol: In this study, with the final activated form of vitamin D3, 1,25-dihydroxyvitamin D3 [1,25 (OH)2D3] as the test substance, the immortalized human urethral epithelial cells SV-HUC1 as experimental systems, the E. coli CFT073 as antibacterial target, the cells treated by 1,25 (OH) 2D3 were co-incubated with E. coli CFT073. The E. coli CFT073 colony forming units (CFU) were used to examine whether 1,25 (OH) 2D3 achieves an antibacterial effect by stimulating cell lines derived from human to secrete antimicrobial peptides in vitro.
as §1, with “SV-HUC1” for “5637”, “dispersed uniformly.” for “uniformly dispersed.”
as §2
The concentration of cell suspension was adjusted to 4×10^5/mL using F12 incomplete medium;
Each well of 6-well plate was inoculated with 2 mL cell suspension, the total number of cells per well was 8×10^5; […]

With `C=C1/C(=C\C=C2/CCC[C@]3(C)[C@@H]([C@H](C)CCCC(C)(C)O)CC[C@@H]23)C[C@@H](O)C[C@@H]1O` [VD3, 1,25-dihydroxyvitamin D3] as the molecule, how does the “LL-37 levels in cell lysates” value (LL-37) read?
Its value is “significant dose-dependent increase”.

And the “antibacterial effect (relative CFU of 5637 cell lysate vs ethanol control)” value (E. coli CFT073 [1])?
Its value is “significant antibacterial effect”.

And the CFU (E. coli O111B4; High dose, VD3 10^−7M, Day 1, Serum 10%)?
The CFU was 172.

What about the CFU (E. coli O111B4; High dose, VD3 10^−7M, Day 2, Serum 1%) of the same molecule?
The CFU was 112.

And the CFU (E. coli O111B4; High dose, VD3 10^−7M, Day 2, Serum 10%)?
The CFU was 127.

What about the CFU (E. coli O111B4; High dose, VD3 10^−7N, Day 1, Serum 1%) of the same molecule?
Its CFU is 108.

And the CFU (E. coli O111B4; Low Dose, VD3 10^−8M, Day 1, Serum 1%)?
The CFU was 102.

What about the CFU (E. coli O111B4; Low Dose, VD3 10^−8M, Day 1, Serum 10%) of the same molecule?
The CFU was 112.

What about the CFU (E. coli O111B4; Low Dose, VD3 10^−8M, Day 2, Serum 1%) of the same molecule?
The CFU was 93.

And the CFU (E. coli O111B4; Low Dose, VD3 10^−8M, Day 2, Serum 10%)?
Its CFU is 97.

What about the “antibacterial effect of supernatant solution” value (E. coli O111B4; U937 cells stimulated by different concentrations of VD3) of the same molecule?
The value was “significant antibacterial effect”.

And the “antibacterial activity of cell lysates” value (E. coli CFT073 [2])?
Its value is “significant antibacterial activity”.

For `CC1(C)S[C@@H]2[C@H](NC(=O)[C@H](N)c3ccccc3)C(=O)N2[C@H]1C(=O)O` [antibiotic control group, ampicillin], which colonies produced (E. coli O111B4; antibiotics control experiment: PBS, broth, 2 uL ampicillin, top agar) is on record?
Its colonies produced is “no colonies produced”.

Reference: US20160324876A1, “VITAMIN D AND ANTIBACTERIAL USES OF COMPOSITIONS THEREOF” (ZENSUN SCIENCE & TECHNOLOGY LIMITED, priority 2014, published 2016)
